One assay has as its target T1, DNA-PK (Homo sapiens, UniProt P78527).
T1 construct: endogenous in cells; host or cells: HEK293T (inferred; only VPR is transfected, DNA-PK is the cells' own)
Put plainly: Western blot of γH2AX (H2AX phosphorylation) in cells transfected with VPR-encoding plasmid. In kind it is cell-based. Particulars: indicated concentrations of inhibitor (FIG. 2d). For orientation: In western blotting, separated proteins are transferred to a membrane and probed.

A further assay deals with 293T cells. Kind of assay: VPR-induced apoptosis and cell cycle analysis by propidium iodide DNA content in 293T cells. In kind it is cell-based, human. The procedure: (§1) Cell cycle analysis in 293T cells was performed on ethanol-fixed cells using the propidium iodide staining method after transduction with lentiviral vectors encoding wild type or mutant VPR. Cell debris was excluded from the analysis, and the DNA content of cells below the diploid level, sub-G1, was used to calculate the apoptosis rate. The association of VPR with VprBP and DNA-PK was determined by immunoprecipitation. Briefly, whole cell extracts were prepared in lysis buffer and incubated with the relevant antibodies, concentrated on Protein G beads, and analyzed by Western blotting. HIV-1 viral stocks were generated by transfecting 293T cells with the HIV-189.6 wild type and IVPR plasmids followed by propagation in CEMx174 cells as previously described^16. CD4^+ T cells were isolated from elutriated lymphocytes using magnetic bead purification, activated and infected as described in Methods. For siRNA transfections in CD4^+ lymphocytes, isolated CD4 cells were transduced by nucleofection. In some experiments, cells were treated with either DMSO or the DNA-PK inhibitor NU7026 (Sigma) during the infection period. Viability of infected primary CD4^+ T cells was performed using combined staining with Annexin V-APC (BD Pharmigen) and the amine reactive viability dye ViVid (Invitrogen). Flow cytometry was performed with a LSR II cell analyzer.
CEMX174 cells were cultured in RPMI with 10% FBS and antibiotics (penicillin and streptomycin). HEK293T cells were cultured in DMEM supplemented with 10% FBS and antibiotics (penicillin and streptomycin). For immunoprecipitation experiments HEK293T cells were transfected with 3 μg of either […] or 102-HAVpr Q65R using the LipofectAMINE 2000 reagent (Life Technologies, Inc.). For cell cycle analysis HEK293T cells were harvested, washed with ice-cold PBS and resuspended in 70% cold ethanol while vortexing. The cells were incubated at −20° C. overnight, washed once with PBS and resuspended in PBS containing 25 μg/ml propidium iodide and 100 μg/ml RNaseA for 15 minutes at 25° C. Stained cells were then analyzed by flow cytometry.
Lentivirus vectors were produced by transiently transfecting HEK293T cells using the calcium phosphate method. […]. Virus supernatants were collected at 48 h post transfection. The harvested supernatants were cleared by centrifugation, concentrated and frozen at −80° C. for storage.

For the next assay, the system named is HIV-189.6. Kind of assay: Frequency of infection by p24 positivity, flow cytometry. In kind it is cell-based, HIV-1. The settings on record: primary CD4+ lymphocytes, wild type HIV-189.6; NU7026 vs DMSO. The procedure:
Purified, activated CD4^+ T cells were infected 2-3 days after isolation. For nucleofected cells, infection was done 36 h after nucleofection. HIV-1 infection of CD4^+ T lymphocytes was performed in 96-well round-bottomed culture plates by combining 10 μl virus stock with 150 μl CD4^+ T lymphocytes (1.5×10^5 cells). The multiplicity of infection was ˜1.0. CD4^+ T lymphocytes were harvested at the indicated times following exposure to virus.
CD4^+ T lymphocytes were harvested for Annexin V, Vivid and intracellular p24-Gag staining at the indicated times following exposure to virus. In brief, the cells were washed and stained with Annexin V-APC (BD Pharmigen) and Vivid (Invitrogen) for 20 min. Cells were washed once, fixed, and permeabilized with Cytoperm/Cytofix (BD Pharmingen) for 20 min. Cells were then stained for p24 Gag (KC-57 fluorescein isothiocyanate (FITC); Coulter) for 30 min and washed once in 1× Perm/wash buffer (BD Pharmingen). Flow cytometry was performed with an LSR II cell analyzer (Becton Dickinson), and data analysis was performed with FlowJo software (Tree Star, Inc.)
In general terms: A flow cytometer gives signals particle by particle.

Assay [1] has as its system primary human CD4+ T cells infected with HIV-189.6. Kind of assay: Viability (Annexin V / ViVid) of primary CD4+ T cells infected with HIV-189.6. In kind it is cell-based. The settings on record: primary CD4+ lymphocytes, wild type HIV-189.6; NU7026 vs DMSO vehicle; 6 days after infection. The procedure:
as §1, with “For siRNA transfections in CD4^+ lymphocytes, isolated CD4 cells were transduced by nucleofection. In some experiments, cells were treated with either DMSO or the DNA-PK inhibitor NU7026 (Sigma) during the infection period. Viability of infected primary CD4^+ T cells was performed using combined staining with Annexin V-APC (BD Pharmigen) and the amine reactive viability dye ViVid (Invitrogen). Flow cytometry was performed with a LSR II cell analyzer.” left out
CD4^+ T lymphocytes were isolated from elutriated lymphocytes prepared from blood of healthy donors by negative selection with a CD4^+ T-cell isolation kit II (Miltenyi Biotech) according to the manufacturer's instructions. The purity of the isolated CD4^+ T cells was assessed by fluorescence-activated cell sorting (FACS) analysis for CD4 (BD-Pharmingen) and 95% of the cells were CD4^+ upon isolation. […]

[2] abbreviates: 293T cells transduced with VPR lentiviral vector, NU7026 10 μM vs DMSO, 72 h after transduction.
Where [3] appears, read: 293T cells transduced with lentiviral vector encoding wild type VPR, 100 μM Z-VAD-fmk vs DMSO.

The record followed here is US20130109687A1, “METHODS OF TREATING HIV INFECTION: INHIBITION OF DNA DEPENDENT PROTEIN KINASE” (priority 2010, published 2013).

“Also recorded” adds a separate entry of the source. Peptide text beside a SMILES is read from it. * marks the point of attachment. Cbz = O=C(OCc1ccccc1)*; CH2F = FC*

Method for DNA-PK: FIG. 2d, VPR induction of DNA-PKcs autophosphorylation (left, lanes 1,2) and Western blot analysis of γH2AX from cells transfected with a VPR-encoding plasmid and treated with the indicated concentrations of DNA-PK inhibitor NU7026 (right, lanes 3-7). Western blot analysis of autophosphorylated DNA-PKcs was performed using anti-phosphoserine 2056 DNA-PKcs from cells transfected with an empty vector or a VPR-encoding plasmid. Cell lysates were subjected to Western blotting using the indicated antibodies.
Cell extracts for Western blots and immunoprecipitations were made in cell lysis buffer (Cell Signal). Immunoprecipitations were performed overnight at 4° C. using normal rabbit serum, anti-VprBP or anti-DNA-PK polyclonal antibodies (Bethyl Laboratories). Protein G beads (Invitrogen) were then added for 2 h, washed three times with 1× lysis buffer, boiled and loaded onto 4-15% polyacrylamide Tris Glycine gels (BioRad). The primary antibodies used for Western blotting were anti-DNA-PK, anti-VprBP (Bethyl Laboratories), anti-actin (Sigma), anti-γH2AX (Cell Signaling), anti-HA (Santa Cruz Biotechnology), anti-Ku70, and anti-Ku80 (BD Transduction Laboratories).

Turning to `O=c1cc(N2CCOCC2)oc2c1ccc1ccccc12` [NU7026], at DNA-PK, the “VPR induced H2AX phosphorylation” value is on record as “diminished by this DNA-PK inhibitor in a dose-dependent manner”. Besides, in the assay on 293T cells (setting [2]), the “G2/M cell cycle arrest” value was “without diminishing” and the VPR-induced apoptosis result is reported as “alleviated”. For the same compound, in the assay on HIV-189.6, the “frequency of infection, p24 positivity” value is “remained unchanged”. The “direct cell killing by the virus (cell death following HIV infection)” value in assay [1] is “profoundly diminished; also recorded: substantial reduction”.
On to `COC(=O)C[C@H](NC(=O)[C@H](C)NC(=O)[C@@H](NC(=O)OCc1ccccc1)C(C)C)C(=O)CF` [zVAD-fmk] (Cbz-Val-Ala-Asp(OMe)-CH2F), for which, in the assay with 293T cells (setting [3]), the G2/M blockade entry is recorded as “did not reverse” and the VPR-induced apoptosis entry was “significantly reduced”.
